Laboratory results taken from US20150148393A1, “COSMETIC AND/OR PHARMACEUTICAL COMPOSITION FOR THE TREATMENT OF SKIN INFLAMMATION AND RELATED SYNDROMES” (GENERAL TOPICS S.R.L., priority 2012, published 2015).

Tested on: TNF alpha release from human keratinocytes
Assay: Inhibition of SLS-induced TNF alpha release from human keratinocytes
Type: cell-based
Settings: release induced by sodium lauryl sulphate (SLS), after a 24 hour-period
From the text: A comparison was made between the inhibition of TNF alpha release from human keratinocytes as induced by contact with sodium lauryl sulphate (SLS) and obtained with the use of methyl sulfonyl methane (MSM), and that obtained with the use of hydrocortisone, a compound known to be active in inhibiting the release of TNF alpha. […] Therefore, the studies performed pointed out that MSM can decrease both the release of TNF alpha (this cytokine is expressed by keratinocytes in an inflammatory process of the skin) and the overall intensity of erythema even when TNF alpha is over-expressed by ultraviolet radiations. […] Moreover, it should be noted that TNF alpha can activate TRPV receptors and, therefore, a decrease in the production thereof can prevent it from exerting an agonist effect on the receptors themselves.

Row | Structure (SMILES) | percentage decrease of TNF alpha release
1 | CS(C)(=O)=O [MSM, methyl sulfonyl methane] | 12.33%
2 | C[C@]12CCC(=O)C=C1CC[C@@H]1[C@@H]2[C@@H](O)C[C@@]2(C)[C@H]1CC[C@]2(O)C(=O)CO [hydrocortisone] | 5.25%
